Results: patent US20040224884A1, “Methods of screening for apoptosis-controlling agents for bone anabolic therapies and uses thereof” (priority 1998, published 2004)

Assays:
[1] = target: T1, murine estrogen receptor-alpha (mERα) (Mus musculus, UniProt P19785); test: Etoposide-induced apoptosis in HeLa cells stably transfected with mERα; type: cell-based, human; settings: 10^−8 M, 1 h; etoposide 5×10^−5 M, 6 hour
T1 construct: expressed in transfected cells
T1 sequence (P19785 1-599): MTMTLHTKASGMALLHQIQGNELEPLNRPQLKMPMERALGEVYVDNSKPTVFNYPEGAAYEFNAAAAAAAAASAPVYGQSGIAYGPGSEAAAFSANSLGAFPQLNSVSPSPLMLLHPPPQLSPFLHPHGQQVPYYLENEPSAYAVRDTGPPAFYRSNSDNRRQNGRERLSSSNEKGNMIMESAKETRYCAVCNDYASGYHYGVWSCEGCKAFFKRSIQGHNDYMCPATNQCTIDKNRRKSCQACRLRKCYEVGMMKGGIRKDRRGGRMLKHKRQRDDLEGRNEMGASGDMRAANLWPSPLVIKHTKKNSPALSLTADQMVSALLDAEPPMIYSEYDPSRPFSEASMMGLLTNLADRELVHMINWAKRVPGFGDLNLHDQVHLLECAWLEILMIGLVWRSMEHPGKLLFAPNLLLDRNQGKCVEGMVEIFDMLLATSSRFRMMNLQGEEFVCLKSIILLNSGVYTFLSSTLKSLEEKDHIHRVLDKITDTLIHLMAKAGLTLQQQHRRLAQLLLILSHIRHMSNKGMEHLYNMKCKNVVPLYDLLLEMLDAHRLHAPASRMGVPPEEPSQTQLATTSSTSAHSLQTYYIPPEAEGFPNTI
From the text: CMV promoter alone and CMV promoter-driven cDNA for mERα or mErβ were stably transfected into HeLa cells. […] Cells were trypsinized, pelleted and trypan blue positive cells enumerated.
In this experiment, instead of calvaria cells, human HeLa cells which contain undetectable, if any, estrogen receptor were used. HeLa cells were stably transfected with either a CMV promoter-driven cDNA for the murine estrogen receptor-alpha (mERα) or a CMV promoter-driven cDNA for the murine estrogen receptor-beta (mERβ). […] Cells were trypsinized, pelleted and trypan blue positive cells were enumerated.

[2] = system: extracellular signal regulated kinases (ERKs) 1 and 2; test: Western blot of phosphorylated ERK1/2 in MLO-Y4 cells; type: cell-based, murine
Description: (§1) MLO-Y4 osteocytic cells were incubated for 25 minutes in serum -free medium. […] Cell lysates were prepared and proteins were separated by electrophoresis in polyacrylamide gels and transferred to PVDF membranes. Western blotting was performed using a specific antibody recognizing phosphorylated ERKs 1 and 2, followed by reblotting with an antibody recognizing total ERKs. Blots were developed by enhanced chemiluminescence.
as §1, with “MLO-Y4” for “MLO-Y4 osteocytic”, “serum-free medium in the presence or absence of 50 μM PD98059.” for “serum -free medium.”
as §1, with “In this experiment, MLO-Y4” for “MLO-Y4”, “serum-free” for “serum -free”, “extracellular signal regulated kinases” for “ERKs”, “extracellular signal regulated kinases.” for “ERKs.”, “chemiluminescence. […] This effect is too rapid to be accounted for by the classical mechanism of estrogen action.” for “chemiluminescence.”
as §1, with “In this experiment, MLO-Y4” for “MLO-Y4”, “serum-free medium in the presence or absence of 50 μM PD98059.” for “serum -free medium.”, “extracellular signal regulated kinases” for “ERKs”, “extracellular signal regulated kinases.” for “ERKs.”

MLO-Y4 osteocytic cells = test: Etoposide-induced apoptosis of MLO-Y4 osteocytic cells, trypan blue uptake; type: cell-based, murine
Description: Cells were pretreated with the indicated concentrations of the compounds for 1 hour before the addition of the pro-apoptotic agent etoposide. Apoptosis was determined after 6 hour by trypan blue uptake as described in FIG. 3. * indicates p<0.05 versus etoposide alone, by ANOVA (Student-Newman-Keuls method).
MLO-Y4 cells were pretreated for 1 hour with the pure receptor antagonist ICI182,780 (10^−7 M) before the addition of the test agents (10^−8 M). Apoptosis was induced and quantified as described in FIG. 3. * indicates p<0.05 versus etoposide alone, by ANOVA (Student-Newman-Keuls method).
In this experiment, MLO-Y4 cells were pretreated with the indicated concentrations of the various compounds for 1 h before the addition of the pro-apoptotic agent, etoposide. Apoptosis was determined after 6 h by trypan blue uptake as described in FIG. 3.

C[C@@]12CCC[C@H]1[C@@H]1CCc3cc(O)ccc3[C@H]1CC2 [estratriene-3-ol]
inhibition of etoposide-induced apoptosis in HeLa cells transfected with estrogen receptor α [1]: potently inhibited | activation (phosphorylation) of ERKs ([2]; 10^−8 M, 5, 15 or 30 minutes): activated | ability to activate ERKs in the presence of PD98059 ([2]; 10^−8 M, 5 minutes, 50 μM PD98059): abrogated | antiapoptotic effect on osteocytes after pretreatment with ICI182,780 (MLO-Y4 osteocytic cells; ICI182,780 10^−7 M, 1 h pretreatment): abrogated | inhibition of etoposide-induced apoptosis of osteocytic cell line (MLO-Y4 osteocytic cells; MLO-Y4, pretreated 1 h before etoposide, apoptosis after 6 h): dose-dependently inhibited
